In patent US20220330549A1, “USE OF N-BENZYLBENZAMIDE-BASED COMPOUND AS HERBICIDE” (Northwest A&F University, priority 2020, published 2022):

Tests used:
Format in all cases: in vivo
[1] = test system: Barnyard grass; experiment: Herbicidal activity test for indoor pre-emergence soil treatment; parameters: key: level 1-9; higher = more weed remaining vs blank control; conditions: 150 g a.i./ha, visual inspection 21 days after treatment
Summary of the method: (§1)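 Compounds were formulated as 10% emulsifiable concentrates and sprayed onto the soil 24 h after sowing, at 150 g(a.i.)/ha. Soil was sandy loam (≤2% organic matter), with seeds under 0.5–2.0 cm cover, per NY/T 1155.3-2006. Visual 1–9 ratings relative to blank control were made after 21 days.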

[2] = test system: Piemarker; experiment: as above; parameters: key: level 1-9; higher = more weed remaining vs blank control; conditions: 150 g a.i./ha, visual inspection 21 days after treatment
Summary of the method: as §1

[3] = test system: green bristlegrass; experiment: as above; parameters: key: level 1-9; higher = more weed remaining vs blank control; conditions: 150 g a.i./ha, visual inspection 21 days after treatment
Summary of the method: as §1

[4] = test system: Amaranthus retroflexus; experiment: as above; parameters: key: 1-9 levels; higher = more weed remaining vs blank control; conditions: 150 g a.i./ha, visual inspection 21 days after treatment
Summary of the method: as §1

[5] = test system: Digitaria sanguinalis; experiment: as above; parameters: key: 1-9 levels; higher = more weed remaining vs blank control; conditions: 150 g a.i./ha, visual inspection 21 days after treatment
Summary of the method: as §1

[6] = test system: Humulus scandens; experiment: as above; conditions: 150 g a.i./ha, visual inspection 21 days after treatment
Summary of the method: as §1

[7] = test system: Amaranthus retroflexus; experiment: Herbicidal activity test for indoor post-emergence spraying on stems and leaves; parameters: key: grade level by weed remaining vs blank control, e.g. 5 = 10.1-15%; conditions: 150 g a.i./ha, visual inspection 21 days after treatment
Summary of the method: (§2)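 Visual inspection at 21 days after treatment gave a level rating, each level defined as a percentage band of the weed remaining in the blank control area. Plants were sprayed on stems and leaves after emergence, following NY/T 1155.4-2006.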

[8] = test system: Barnyard grass; experiment: as above; parameters: key: grade level by weed remaining vs blank control, e.g. 5 = 10.1-15%; conditions: 150 g a.i./ha, visual inspection 21 days after treatment
Summary of the method: as §2

[9] = test system: Digitaria sanguinalis; experiment: as above; parameters: key: grade level by weed remaining vs blank control, e.g. 5 = 10.1-15%; conditions: 150 g a.i./ha, visual inspection 21 days after treatment
Summary of the method: as §2

[10] = test system: Humulus scandens; experiment: as above; parameters: key: grade level by weed remaining vs blank control, e.g. 5 = 10.1-15%; conditions: 150 g a.i./ha, visual inspection 21 days after treatment
Summary of the method: as §2

[11] = test system: Piemarker; experiment: as above; parameters: key: grade level by weed remaining vs blank control, e.g. 5 = 10.1-15%; conditions: 150 g a.i./ha, visual inspection 21 days after treatment
Summary of the method: as §2

[12] = test system: green bristlegrass; experiment: as above; parameters: key: grade level by weed remaining vs blank control, e.g. 5 = 10.1-15%; conditions: 150 g a.i./ha, visual inspection 21 days after treatment
Summary of the method: as §2

[13] = test system: Broadleaf weed; experiment: Post-emergence herbicidal activity test in a paddy field; parameters: key: level scale; higher level = more weed left vs blank control; conditions: 150 g a.i./ha (penoxsulam control 250 g(a.i.)/h)
Summary of the method: (§3)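 Efficacy was visually estimated 15 and 30 days after spraying, grading weed coverage relative to an untreated neighbouring plot (level 2 = 0 to 2.5%, level 9 = 67.6 to 100%). Treatments were 150 g(a.i.)/ha from 10% emulsifiable concentrates applied at the 4-5 leaf rice stage, four repeats of 50 m^2 each.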

[14] = test system: Cyperaceae; experiment: as above; parameters: key: level scale; higher level = more weed left vs blank control; conditions: 150 g a.i./ha (penoxsulam control 250 g(a.i.)/h)
Summary of the method: as §3

[15] = test system: Gramineae; experiment: as above; parameters: key: level scale; higher level = more weed left vs blank control; conditions: 150 g a.i./ha (penoxsulam control 250 g(a.i.)/h)
Summary of the method: as §3

[16] = test system: Acalypha australis; experiment: Field test for weed control in a corn field; conditions: for Post-emergence weed control effect, Acalypha australis: 150 g a.i./ha, after treatment
Summary of the method: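 Post-emergence field trial in a corn field following GB/T 17980.42-2000. Test compounds were formulated as 10% emulsifiable concentrates, diluted in water, and sprayed at 150 g(a.i.)/ha when corn had 2 to 5 leaves, with 4 replicates on 20 m^2 plots. Mesotrione 25% oil dispersion served as the control agent. Weed control was scored on a 1-9 scale.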

[17] = test system: Amaranthus retroflexus; experiment: Field test for weed control in a corn field; conditions: for Post-emergence weed control effect, Amaranthus retroflexus: 150 g a.i./ha, 30 days after treatment
Summary of the method: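 Field efficacy trial in a corn field following GB/T 17980.42-2000. Test compounds were formulated as 10% emulsifiable concentrates, diluted in water and sprayed post-emergence when corn had 2 to 5 leaves. Each treatment covered 20 m^2 with 4 replicates. A 25% mesotrione oil dispersion served as control. Damage to Amaranthus retroflexus was rated on a 1-9 scale against untreated blank plots.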

[18] = test system: Barnyard grass; experiment: Field test for weed control in a corn field; conditions: for Post-emergence weed control effect, Barnyard grass: 150 g a.i./ha, 30 days after treatment
Summary of the method: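 Corn-field efficacy trial following GB/T 17980.42-2000. Test compounds were formulated as 10% emulsifiable concentrates, diluted in water and sprayed post-emergence at 150 g(a.i.)/ha when corn had 2 to 5 leaves. Each treatment was replicated 4 times on 20 m^2 plots. Barnyard grass control was rated on a 1-9 damage scale.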

[19] = test system: Chenopodium album; experiment: Field test for weed control in a corn field; conditions: for Post-emergence weed control effect, Chenopodium album: 150 g a.i./ha, after treatment
Summary of the method: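 A corn-field efficacy trial following GB/T 17980.42-2000 tested post-emergence control of Chenopodium album. Test compounds formulated as 10% emulsifiable concentrates were diluted in water and sprayed at 150 g(a.i.)/ha when the corn had 2 leaves to 5 leaves, on 20 m^2 plots with 4 replicates. Herbicidal activity was rated on a 1-9 scale by damage symptoms and severity.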

[20] = test system: Convolvulus arvensis; experiment: Field test for weed control in a corn field; conditions: for Post-emergence weed control effect, Convolvulus arvensis: 150 g a.i./ha, after treatment
Summary of the method: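 Field trial of weed control against Convolvulus arvensis in corn, run following GB/T 17980.42-2000. Test agents were formulated as 10% emulsifiable concentrates and sprayed in water at 150 g(a.i.)/ha when corn plants had 2 to 5 leaves. Each treatment was replicated 4 times on 20 m^2 plots, and 25% mesotrione oil dispersion served as the control agent.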

[21] = test system: Digitaria sanguinalis; experiment: Field test for weed control in a corn field; conditions: for Post-emergence weed control effect, Digitaria sanguinalis: 150 g a.i./ha, after treatment
Summary of the method: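 Field trial in a corn field following GB/T 17980.42-2000. Test compounds were formulated as 10% emulsifiable concentrates, diluted in water and sprayed post-emergence at 150 g(a.i.)/ha when corn had 2 to 5 leaves, with 4 replicates on 20 m^2 plots. Control of Digitaria sanguinalis was scored on a 1-9 scale based on weed damage relative to the untreated blank area.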

[22] = test system: Portulaca oleracea; experiment: Field test for weed control in a corn field; conditions: for Post-emergence weed control effect, Portulaca oleracea: 150 g a.i./ha, after treatment
Summary of the method: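 Field efficacy trial in corn following GB/T 17980.42-2000. Test compounds were prepared as 10% emulsifiable concentrates, diluted in water, and sprayed at 150 g(a.i.)/ha when corn had 2 to 5 leaves after sowing. Plots were 20 m^2 with 4 replicates per treatment. Herbicidal activity was scored on a 1-9 scale from weed damage symptoms and severity.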

[23] = test system: Solanum nigrum; experiment: Field test for weed control in a corn field; conditions: for Post-emergence weed control effect, Solanum nigrum: 150 g a.i./ha, 30 days after treatment
Summary of the method: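 Post-emergence weed control was tested in a corn field following GB/T 17980.42-2000. Compounds were made into 10% emulsifiable concentrates, diluted in water and sprayed at 150 g(a.i.)/ha when corn had 2 to 5 leaves after sowing, in 20 m^2 plots with 4 replicates. Effects on Solanum nigrum were graded on a 1-9 scale relative to the blank control area.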

[24] = test system: goosegrass; experiment: Field test for weed control in a corn field; conditions: for Post-emergence weed control effect, Goose grass: 150 g a.i./ha, after treatment
Summary of the method: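 Weed control efficacy against goosegrass was tested in a corn field following GB/T 17980.42-2000. Compounds formulated as 10% emulsifiable concentrates were diluted in water and sprayed post-emergence at 150 g(a.i.)/ha when corn had 2 to 5 leaves, with 4 replicates of 20 m^2 plots. Herbicidal activity was rated on a 1-9 scale by damage symptoms and severity.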

[25] = test system: green bristlegrass; experiment: Field test for weed control in a corn field; conditions: for Post-emergence weed control effect, Green bristlegrass: 150 g a.i./ha, after treatment
Summary of the method: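 Post-emergence weed control was tested in a corn field following GB/T 17980.42-2000. When the corn had 2 leaves to 5 leaves after sowing, 10% emulsifiable concentrates diluted in water were sprayed at 150 g(a.i.)/ha on 20 m^2 plots, four replicates per treatment. Effects on green bristlegrass were scored on a 1-9 damage scale relative to the blank control area.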

[26] = test system: nutgrass flatsedge; experiment: Field test for weed control in a corn field; conditions: for Post-emergence weed control effect, Nutgrass flatsedge: 150 g a.i./ha, after treatment
Summary of the method: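 A corn field efficacy trial following GB/T 17980.42-2000 assessed post-emergence control of nutgrass flatsedge. Test compounds were formulated as 10% emulsifiable concentrates, diluted in water, and sprayed at 150 g(a.i.)/ha when the corn had 2 to 5 leaves. Each treatment had 4 replicates on 20 m^2 plots. Herbicidal activity was graded on a 1-9 scale by damage symptoms and severity.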

[27] = 150 g(a.i.)/ha, 21 days after treatments

| Structure (SMILES) | Herbicidal Activity Barnyard grass [1] | Herbicidal Activity Piemarker [2] | Herbicidal Activity Green bristlegrass [3] | Herbicidal Activity Amaranthus retroflexus [4] | Herbicidal Activity Digitaria sanguinalis [5] | Herbicidal Activity Humulus scandens [6] | Herbicidal Activity Amaranthus retroflexus [7] | Herbicidal Activity Barnyard grass [8] | Herbicidal Activity Digitaria sanguinalis [9] | Herbicidal Activity Humulus scandens [10] | Herbicidal Activity Piemarker [11] | Herbicidal Activity Green bristlegrass [12] | Herbicidal activity 15 days after treatment Broadleaf weed [13] | Herbicidal activity 30 days after treatment Broadleaf weed [13] | Herbicidal activity 15 days after treatment Cyperaceae [14] | Herbicidal activity 30 days after treatment Cyperaceae [14] | Herbicidal activity 15 days after treatment Gramineae [15] | Herbicidal activity 30 days after treatment Gramineae [15] | Post-emergence weed control effect, Acalypha australis [16] | Post-emergence weed control effect, Amaranthus retroflexus [17] | further results |
| --- | --- | --- | --- | --- | --- | --- | --- | --- | --- | --- | --- | --- | --- | --- | --- | --- | --- | --- | --- | --- | --- |
| COc1ccccc1C(=O)NCc1cccc(Cl)c1 [Compound A09, N-(3-chlorobenzyl)-2-methoxybenzamide] | 1 | 1 | 2 (equivalent to 0 to 2.5% of the weed in the blank control area) | 2 (equivalent to 0 to 2.5% of the weed in the blank control area) | 2 (equivalent to 0 to 2.5% of the weed in the blank control area) | 3 (equivalent to 2.6 to 5% of the weed in the blank control area) | 1 | 1 | 1 | 1 | 1 | 2 (equivalent to 0 to 2.5% of the weed in the blank control area) | 2 (equivalent to 0 to 2.5% of the weed in the blank control area) | 2 (equivalent to 0 to 2.5% of the weed in the blank control area) | 1 | 2 (equivalent to 0 to 2.5% of the weed in the blank control area) | 2 (equivalent to 0 to 2.5% of the weed in the blank control area) | 2 (equivalent to 0 to 2.5% of the weed in the blank control area) | 2 (equivalent to 0 to 2.5% of the weed in the blank control area) | 1 | Post-emergence weed control effect, Barnyard grass [18]: 2 (equivalent to 0 to 2.5% of the weed in the blank control area); Post-emergence weed control effect, Chenopodium album [19]: 1; Post-emergence weed control effect, Convolvulus arvensis [20]: 2 (equivalent to 0 to 2.5% of the weed in the blank control area); Post-emergence weed control effect, Digitaria sanguinalis [21]: 2 (equivalent to 0 to 2.5% of the weed in the blank control area); Post-emergence weed control effect, Portulaca oleracea [22]: 1; Post-emergence weed control effect, Solanum nigrum [23]: 2 (equivalent to 0 to 2.5% of the weed in the blank control area); Post-emergence weed control effect, Goose grass [24]: 1; Post-emergence weed control effect, Green bristlegrass [25]: 2 (equivalent to 0 to 2.5% of the weed in the blank control area); Post-emergence weed control effect, Nutgrass flatsedge [26]: 2 (equivalent to 0 to 2.5% of the weed in the blank control area) |
| COc1ccccc1C(=O)NCc1ccc(F)cc1 [Compound A02] | 1 | 2 (equivalent to 0 to 2.5% of the weed in the blank control area) | 2 (equivalent to 0 to 2.5% of the weed in the blank control area) | 3 (equivalent to 2.6 to 5% of the weed in the blank control area) | 1 | 4 (equivalent to 5.1 to 10% of the weed in the blank control area) | 1 | 1 | 1 | 1 | 1 | 2 (equivalent to 0 to 2.5% of the weed in the blank control area) | 1 | 1 | 1 | 1 | 1 | 1 | 1 | 1 | controlling effect on Acalypha australis [16, 27]: 1; controlling effect on Amaranthus retroflexus [17, 27]: 1; Post-emergence weed control effect, Barnyard grass [18]: 1; controlling effect on barnyard grass [18, 27]: 1; Post-emergence weed control effect, Chenopodium album [19]: 1; controlling effect on Chenopodium album [19, 27]: 1; Post-emergence weed control effect, Convolvulus arvensis [20]: 1; controlling effect on Convolvulus arvensis [20, 27]: 1; Post-emergence weed control effect, Digitaria sanguinalis [21]: 1; controlling effect on Digitaria sanguinalis [21, 27]: 1; Post-emergence weed control effect, Portulaca oleracea [22]: 1; controlling effect on Portulaca oleracea [22, 27]: 1; Post-emergence weed control effect, Solanum nigrum [23]: 1; controlling effect on Solanum nigrum [23, 27]: 1; Post-emergence weed control effect, Goose grass [24]: 1; controlling effect on goosegrass [24, 27]: 1; Post-emergence weed control effect, Green bristlegrass [25]: 1; controlling effect on green bristlegrass [25, 27]: 1; Post-emergence weed control effect, Nutgrass flatsedge [26]: 1; controlling effect on nutgrass flatsedge [26, 27]: 1 |
